Measured values published in patent publication US20080045537A1, “Chemical Compounds” (priority 2004, published 2008).
pIC50: −log10 of the molar value.

test system: HIV-1 IIIB (T-tropic, CXCR4 utilizing); experiment: HOS HIV-1 infectivity assay; assay type: cell-based; details: Human immunodeficiency virus 1, IIIB; as determined by the infectivity assay; strain not stated in Table 2; read-out: Activity Level
Outline: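 Luminescence served as read-out: Steady-Glo luciferase for infected wells, CellTiter-Glo for virus-free wells assessing cytotoxicity. Reporter HOS cells (hCXCR4/hCCR5/hCD4, LTR-luciferase) were preincubated with compound for 1 h, infected with PBL-propagated virus, and cultured 96 h at 37 °C.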

SMILES | pIC50
CN1CCN(c2cccc3nc(CN(CC4CC4)[C@@H]4CCCc5cccnc54)[nH]c23)CC1 [Example 139, (8R)—N-(Cyclopropylmethyl)-N-{[4-(4-methyl-1-piperazinyl)-1H-benzimidazol-2-yl]methyl}-5,6,7,8-tetrahydro-8-quinolinamine] | > 7.00
CN1CCN(c2cccc3nc(CN(CC4CC4)[C@H]4CCCc5cccnc54)[nH]c23)CC1 [Example 140, (8S)—N-(Cyclopropylmethyl)-N-{[4-(4-methyl-1-piperazinyl)-1H-benzimidazol-2-yl]methyl}-5,6,7,8-tetrahydro-8-quinolinamine] | > 7.00
CN(Cc1nc2cccc(N3CCN4CCC[C@@H]4C3)c2[nH]1)[C@H]1CCCc2cccnc21 [Example 141, (8S)—N-({4-[(8aR)-hexahydropyrrolo[1,2-a]pyrazin-2(1H)-yl]-1H-benzimidazol-2-yl}methyl)-N-methyl-5,6,7,8-tetrahydro-8-quinolinamine] | > 7.00
CCN(Cc1nc2cccc(N3CCN4CCC[C@@H]4C3)c2[nH]1)[C@H]1CCCc2cccnc21 [Example 142, (8S)—N-Ethyl-N-({4-[(8aR)-hexahydropyrrolo[1,2-a]pyrazin-2(1H)-yl]-1H-benzimidazol-2-yl}methyl)-5,6,7,8-tetrahydro-8-quinolinamine] | > 7.00
CCCN(Cc1nc2cccc(N3CCN4CCC[C@@H]4C3)c2[nH]1)[C@H]1CCCc2cccnc21 [Example 143, (8S)—N-({4-[(8aR)-hexahydropyrrolo[1,2-a]pyrazin-2(1H)-yl]-1H-benzimidazol-2-yl}methyl)-N-propyl-5,6,7,8-tetrahydro-8-quinolinamine] | > 7.00
CN1C[C@H]2C[C@H](C1)CN(c1cccc3nc(CN(C)[C@H]4CCCc5cccnc54)[nH]c13)C2 [Example 144, (8S)—N-methyl-N-({4-[(1R,5R)-7-methyl-3,7-diazabicyclo[3.3.1]non-3-yl]-1H-benzimidazol-2-yl}methyl)-5,6,7,8-tetrahydro-8-quinolinamine] | > 7.00
CN1CCN(c2cccc3nc(CN(C4CC4)C4CCCc5cccnc54)[nH]c23)CC1 (centres unmarked) [Example 145, N-Cyclopropyl-N-{[4-(4-methyl-1-piperazinyl)-1H-benzimidazol-2-yl]methyl}-5,6,7,8-tetrahydro-8-quinolinamine] | > 7.00
COc1ccc([C@H](C)N(Cc2nc3cccc(N4CCN(C)CC4)c3[nH]2)[C@H]2CCCc3cccnc32)cc1 [Example 146, (8S)—N-{(1S)-1-[4-(methyloxy)phenyl]ethyl}-N-{[4-(4-methyl-1-piperazinyl)-1H-benzimidazol-2-yl]methyl}-5,6,7,8-tetrahydro-8-quinolinamine] | > 7.00
CN1CCN(c2cccc3nc(CN(CCOCc4ccccc4)[C@H]4CCCc5cccnc54)[nH]c23)CC1 [Example 147] | > 7.00
CN1CCN(c2cccc3nc(CN(CCO)[C@H]4CCCc5cccnc54)[nH]c23)CC1 [Example 148, 2-{{[4-(4-Methyl-1-piperazinyl)-1H-benzimidazol-2-yl]methyl}[(8S)-5,6,7,8-tetrahydro-8-quinolinyl]amino}ethanol] | > 7.00
CN1CCN(c2cccc3nc(CN(CCCO)[C@H]4CCCc5cccnc54)[nH]c23)CC1 [Example 149, 3-{{[4-(4-Methyl-1-piperazinyl)-1H-benzimidazol-2-yl]methyl}[(8S)-5,6,7,8-tetrahydro-8-quinolinyl]amino}-1-propanol] | > 7.00
CN1CCN(c2cccc3nc(CN(Cc4ccccc4)[C@H]4CCCc5cccnc54)[nH]c23)CC1 [Example 150, (8S)—N-{[4-(4-methyl-1-piperazinyl)-1H-benzimidazol-2-yl]methyl}-N-(phenylmethyl)-5,6,7,8-tetrahydro-8-quinolinamine] | > 7.00
CN1CCN(c2cccc3c2nc(CN(C)C2CCCc4cccnc42)n3C)CC1 (centres unmarked) [Example 152, N-Methyl-N-{[1-methyl-4-(4-methyl-1-piperazinyl)-1H-benzimidazol-2-yl]methyl}-5,6,7,8-tetrahydro-8-quinolinamine] | 6.30 to 7.00
CN1CCN(c2cccc3nc(CN(C)C4CCCc5cccnc54)n(C)c23)CC1 (centres unmarked) [Example 153, N-Methyl-N-{[1-methyl-7-(4-methyl-1-piperazinyl)-1H-benzimidazol-2-yl]methyl}-5,6,7,8-tetrahydro-8-quinolinamine] | > 7.00
CCN(Cc1nc2cccc(N3CCN(C)CC3)c2n1C)C1CCCc2cccnc21 (centres unmarked) [Example 154, N-Ethyl-N-{[1-methyl-7-(4-methyl-1-piperazinyl)-1H-benzimidazol-2-yl]methyl}-5,6,7,8-tetrahydro-8-quinolinamine] | > 7.00
CCCN(Cc1nc2cccc(N3CCN(C)CC3)c2n1C)C1CCCc2cccnc21 (centres unmarked) [Example 155, N-{[1-Methyl-7-(4-methyl-1-piperazinyl)-1H-benzimidazol-2-yl]methyl}-N-propyl-5,6,7,8-tetrahydro-8-quinolinamine] | > 7.00

SMILES | pIC50
CN1CCN(c2cccc3nc(CN(CC4CC4)C4CCCc5cccnc54)n(C)c23)CC1 (centres unmarked) [Example 156, N-(Cyclopropylmethyl)-N-{[1-methyl-7-(4-methyl-1-piperazinyl)-1H-benzimidazol-2-yl]methyl}-5,6,7,8-tetrahydro-8-quinolinamine] | > 7.00
CN(Cc1nc2cccc(N3CCNCC3)c2n1C)[C@H]1CCCc2cccnc21 [Example 159, (8S)—N-methyl-N-{[1-methyl-7-(1-piperazinyl)-1H-benzimidazol-2-yl]methyl}-5,6,7,8-tetrahydro-8-quinolinamine] | > 7.00
CN1CCN(c2cccc3nc(CN(C)[C@H]4CCCc5cccnc54)n(C)c23)CC1 [Example 160, (8S)—N-Methyl-N-{[1-methyl-7-(4-methyl-1-piperazinyl)-1H-benzimidazol-2-yl]methyl}-5,6,7,8-tetrahydro-8-quinolinamine] | > 7.00
CN1CCN(c2cccc3nc(CN(C)[C@@H]4CCCc5cccnc54)n(C)c23)CC1 [Example 161, (8R)—N-Methyl-N-{[1-methyl-7-(4-methyl-1-piperazinyl)-1H-benzimidazol-2-yl]methyl}-5,6,7,8-tetrahydro-8-quinolinamine] | > 7.00
CCn1c(CN(C)[C@H]2CCCc3cccnc32)nc2cccc(N3CCN(C)CC3)c21 [Example 164, (8S)—N-{[1-ethyl-7-(4-methyl-1-piperazinyl)-1H-benzimidazol-2-yl]methyl}-N-methyl-5,6,7,8-tetrahydro-8-quinolinamine] | > 7.00
CCn1c(CN(Cc2ccccc2)[C@H]2CCCc3cccnc32)nc2cccc(N3CCN(C)CC3)c21 [Example 165, (8S)—N-{[1-Ethyl-7-(4-methyl-1-piperazinyl)-1H-benzimidazol-2-yl]methyl}-N-(Phenylmethyl)-5,6,7,8-tetrahydro-8-quinolinamine] | > 7.00
CCN(Cc1nc2cccc(N3CCN(C)CC3)c2n1CC)[C@H]1CCCc2cccnc21 [Example 166, (8S)—N-Ethyl-N-{[1-ethyl-7-(4-methyl-1-piperazinyl)-1H-benzimidazol-2-yl]methyl}-5,6,7,8-tetrahydro-8-quinolinamine] | > 7.00
CCN(Cc1nc2cccc(N3CCN(C)CC3)c2n1C)[C@H]1CCCc2cccnc21 [Example 167, (8S)—N-Ethyl-N-{[1-methyl-7-(4-methyl-1-piperazinyl)-1H-benzimidazol-2-yl]methyl}-5,6,7,8-tetrahydro-8-quinolinamine] | > 7.00
CCCN(Cc1nc2cccc(N3CCN(C)CC3)c2n1C)[C@H]1CCCc2cccnc21 [Example 168, (8S)—N-{[1-Methyl-7-(4-methyl-1-piperazinyl)-1H-benzimidazol-2-yl]methyl}-N-propyl-5,6,7,8-tetrahydro-8-quinolinamine] | > 7.00
CN1CCN(c2cccc3nc(CN(Cc4ccccc4)[C@H]4CCCc5cccnc54)n(C)c23)CC1 [Example 169, (8S)—N-{[1-Methyl-7-(4-methyl-1-piperazinyl)-1H-benzimidazol-2-yl]methyl}-N-(Phenylmethyl)-5,6,7,8-tetrahydro-8-quinolinamine] | > 7.00
CN1CCN(c2c(Cl)ccc3nc(CN(C)C4CCCc5cccnc54)[nH]c23)CC1 (centres unmarked) [Example 170, N-{[5-Chloro-4-(4-methyl-1-piperazinyl)-1H-benzimidazol-2-yl]methyl}-N-methyl-5,6,7,8-tetrahydro-8-quinolinamine] | > 7.00
CN1CCN(c2ccc(Cl)c3nc(CN(C)C4CCCc5cccnc54)[nH]c23)CC1 (centres unmarked) [Example 171, N-{[4-Chloro-7-(4-methyl-1-piperazinyl)-1H-benzimidazol-2-yl]methyl}-N-methyl-5,6,7,8-tetrahydro-8-quinolinamine] | > 7.00
C[C@H](c1nc2c(N3CCN(C)CC3)cccc2[nH]1)N(C)C1CCCc2cccnc21 (stereo partly drawn) [Example 172, N-Methyl-N-{(1R)-1-[4-(4-methyl-1-piperazinyl)-1H-benzimidazol-2-yl]ethyl}-5,6,7,8-tetrahydro-8-quinolinamine] | > 7.00
CN1CCN(c2cccc3[nH]c([C@H](COCc4ccccc4)N(C)C4CCCc5cccnc54)nc23)CC1 (stereo partly drawn) [Example 176, N-Methyl-N-{(1R)-1-[4-(4-methyl-1-piperazinyl)-1H-benzimidazol-2-yl]-2-[(phenylmethyl)oxy]ethyl}-5,6,7,8-tetrahydro-8-quinolinamine] | > 7.00
CN1CCN(c2cccc3[nH]c([C@@H](COCc4ccccc4)N(C)C4CCCc5cccnc54)nc23)CC1 (stereo partly drawn) [Example 177, N-Methyl-N-{(1S)-1-[4-(4-methyl-1-piperazinyl)-1H-benzimidazol-2-yl]-2-[(phenylmethyl)oxy]ethyl}-5,6,7,8-tetrahydro-8-quinolinamine] | > 7.00
Cn1c(CN(CCO)[C@H]2CCCc3cccnc32)nc2cccc(N3CCNCC3)c21 [Example 178, 2-{{[1-Methyl-7-(1-piperazinyl)-1H-benzimidazol-2-yl]methyl}[(8S)-5,6,7,8-tetrahydro-8-quinolinyl]amino}ethanol] | > 7.00
